Laboratory results from US4647586A, “Pharmaceutical oil-in-water type micro-emulsion” (priority 1984, dated 1987).
Entries after “also recorded” stand apart in the source; their conditions may differ.

What was measured:
[1] = tested on: Carrageenin-induced paw edema; assay: Carrageenin-induced paw edema in rats [Test 2]; assay type: in vivo, SD-strain male rats
Experimental: (a) Experimental animals: SD-strain male rats (120-180 g).
A micro-emulsion containing ethyl 4-biphenylylacetate prepared as in Examples 11, 12, 13 and 14 given hereinafter was administered at a dose of 5 ml per kg of the animals. Venolipid® (Morishita Pharmaceutical Co., Ltd.) was used as a vehicle control. As control drugs, a solution or suspension of ethyl 4-biphenylylacetate in physiological saline containing 0.5% Cremophor EL® (Sigma Chemical Company, a solubilizing agent), 0.2% of polyethylene glycol 400 and 10% of dimethyl sulfoxide, a physiological saline solution of sodium 4-biphenylylacetate and a physiological saline solution of Aspirin DL-lysine [Venopirin®, Green Cross Co.] were used. As the vehicle control of the control drugs, the above solvents were used.
A 1% carrageenin solution in physiological saline was injected subcutaneously in an amount of 0.05 ml into the planter surface of the left hind paw of each rat via a 25 gauge needle fitted to a 0.25 ml syringe. One hour after carrageenin injection, the rats were randomized on the basis of the edema volume, and intravenous administration of the drugs and vehicles followed immediately. The volume of the left hind paw was measured by a plethysmometer (Ugo Basile) prior to the injection of the carrageenin solution and at 2, 3, 4, 5 and 6 hours after the carrageenin injection. As the volume of edema, an increase in the paw volume was taken.
The inhibition percents were calculated in accordance with the same calculation formula as in Test 1.

[2] = tested on: Adjuvant-induced polyarthritis; assay: Adjuvant-induced polyarthritis in rats, adjuvant-injected paw [Test 2]; assay type: in vivo, SD-strain female rats
Experimental: (a) Experimental animals: SD-strain famale rats 140-180g).
(§1) (b) Test drugs: The same as in A-1 [Test 2].
Rats were anesthetized with ether inhalation, and 0.6 mg of Mycobacterium butyricum suspended in 0.1 ml of white paraffin oil was immediately injected intradermally into the planter surface of the left hind paw of each rat via a 27 gauge needle fitted to a 0.5 ml syringe (day 0). On the 14th day after the adjuvant injection, arthritis-established rats selected by development of secondary lesions were used. Volumes of both hind paws in arthritis-established rats were measured by a plethysmometer (UGO BASILE), and the rats were randomized on the basis of the edema volume in the adjuvant-injected paw. Once daily, beginning on the 14th day up to the 18th day, drugs and vehicles were administered intravenously. Measurements of both paw volumes were performed every day from the 15th day up to the 18th day, and on the 21st day and the 24th day. The inhibition percent were calculated in accordance with the calculation formula as in [Test 1] of A-1.

[3] = tested on: abnormal 3-legged gait (brewers yeast-inflamed paw); assay: Reversal of abnormal 3-legged gait in rats (analgesic activity); assay type: in vivo, SD-strain male rats; details: Rattus norvegicus, iv, read-out: ED50 (dose causing at least 50% reversal of gait score in 50% of the rats)
Experimental: (a) Experimental animals: SD-strain male rats (120-165 g).
as §1
A 40% suspension of dried brewers yeast in physiological saline was injected (0.25 ml/rat) subcutaneously into the planter surface of the left hind paw of each rat. Three hours later, the walking gait on a wire mesh platform was assessed for each rat.
0 = Normal gait in the presence of a severely
0.5 = As above, with intermittent mild limping.
1.0 = Constant limping, but continuous use of
1.5 = Limping with occasional 3-legged gait
2.0 = Continous 3-Legged gait and/or only the
Any rat not showing a gait score of 2 was eliminated from this test. Drugs and vehicles were then administered intravenously. Measurements of the gait were made at 1, 2, 3 and 4 hours after drug administration.

[4] = Toxicity test, single tail vein administration, 3 days observation; assay type: in vivo, Charles River-strain SD male rats; details: rat, in vivo, iv; read-out: Doses with no change in general symptoms and autopsy
Experimental: (§2) Charles River-strain SD male rats (6 weeks old; body weight 160-170 g), 5 per group, were used. […] The doses were 50, 100, 200 and 400 mg/kg. As a control, an aqueous solution of sodium 4-biphenylylacetate was administered.

[5] = tested on: Charles River-strain SD male rats; assay: as above; assay type: in vivo
Experimental: as §2

[6] = Distribution to the tissue; details: 10 mg/kg tail vein, as 4-biphenylylacetic acid
Experimental: (a) Experimental animals: Wistar-strain male rats (body weight 60-220 g), 6 per group.
The rats were periodically killed, and the major organs were extracted. The concentration of the drug in the tissues were measured by the conventional HPLC method.

## O=C([O-])Cc1ccc(-c2ccccc2)cc1.[Na+]
[1]; 1.25 mg/kg i.v. as 4-biphenylylacetic acid, 2 h after carrageenin
  Inhibition (%): 6.6%
[1]; 1.25 mg/kg i.v. as 4-biphenylylacetic acid, 3 h after carrageenin
  Inhibition (%): 0%
[1]; 1.25 mg/kg i.v. as 4-biphenylylacetic acid, 4 h after carrageenin
  Inhibition (%): 8.5%
[1]; 1.25 mg/kg i.v. as 4-biphenylylacetic acid, 5 h after carrageenin
  Inhibition (%): 5.2%
[1]; 1.25 mg/kg i.v. as 4-biphenylylacetic acid, 6 h after carrageenin
  Inhibition (%): 6.1%
[1]; 2.5 mg/kg i.v. as 4-biphenylylacetic acid, 2 h after carrageenin
  Inhibition (%): 19,7%
[1]; 2.5 mg/kg i.v. as 4-biphenylylacetic acid, 3 h after carrageenin
  Inhibition (%): 11.7%
[1]; 2.5 mg/kg i.v. as 4-biphenylylacetic acid, 4 h after carrageenin
  Inhibition (%): 18.6%
[1]; 2.5 mg/kg i.v. as 4-biphenylylacetic acid, 5 h after carrageenin
  Inhibition (%): 20.7%
[1]; 2.5 mg/kg i.v. as 4-biphenylylacetic acid, 6 h after carrageenin
  Inhibition (%): 10.2%
[1]; 5.0 mg/kg i.v. as 4-biphenylylacetic acid, 2 h after carrageenin
  Inhibition (%): 9.8%
[1]; 5.0 mg/kg i.v. as 4-biphenylylacetic acid, 3 h after carrageenin
  Inhibition (%): 6.6%
[1]; 5.0 mg/kg i.v. as 4-biphenylylacetic acid, 4 h after carrageenin
  Inhibition (%): 20.3%
[1]; 5.0 mg/kg i.v. as 4-biphenylylacetic acid, 5 h after carrageenin
  Inhibition (%): 19.0%
[1]; 5.0 mg/kg i.v. as 4-biphenylylacetic acid, 6 h after carrageenin
  Inhibition (%): 30.6%
[1]; 10.0 mg/kg i.v. as 4-biphenylylacetic acid, 2 h after carrageenin
  Inhibition (%): 23.0%
[1]; 10.0 mg/kg i.v. as 4-biphenylylacetic acid, 3 h after carrageenin
  Inhibition (%): 28.3%
[1]; 10.0 mg/kg i.v. as 4-biphenylylacetic acid, 4 h after carrageenin
  Inhibition (%): 35.6%
[1]; 10.0 mg/kg i.v. as 4-biphenylylacetic acid, 5 h after carrageenin
  Inhibition (%): 29.3%
[1]; 10.0 mg/kg i.v. as 4-biphenylylacetic acid, 6 h after carrageenin
  Inhibition (%): 30.6%
[1]; Rattus norvegicus, iv, read-out: ED30 (dose required to cause a 30% inhibition of edema volume)
  ED30: 10.5 mg/kg
[2]; 1.25 mg/kg/day i.v. as 4-biphenylylacetic acid, day 15
  Inhibition (%): -1.8%
[2]; 1.25 mg/kg/day i.v. as 4-biphenylylacetic acid, day 16
  Inhibition (%): 1.2%
[2]; 1.25 mg/kg/day i.v. as 4-biphenylylacetic acid, day 17
  Inhibition (%): 7.9%
[2]; 1.25 mg/kg/day i.v. as 4-biphenylylacetic acid, day 18
  Inhibition (%): 3.9%
[2]; 1.25 mg/kg/day i.v. as 4-biphenylylacetic acid, day 21
  Inhibition (%): -7.5%
[2]; 1.25 mg/kg/day i.v. as 4-biphenylylacetic acid, day 24
  Inhibition (%): -14.1%
[2]; 2.5 mg/kg/day i.v. as 4-biphenylylacetic acid, day 15
  Inhibition (%): -4.2%
[2]; 2.5 mg/kg/day i.v. as 4-biphenylylacetic acid, day 16
  Inhibition (%): 1.5%
[2]; 2.5 mg/kg/day i.v. as 4-biphenylylacetic acid, day 17
  Inhibition (%): 1.9%
[2]; 2.5 mg/kg/day i.v. as 4-biphenylylacetic acid, day 18
  Inhibition (%): -3.9%
[2]; 2.5 mg/kg/day i.v. as 4-biphenylylacetic acid, day 21
  Inhibition (%): -15.7%
[2]; 2.5 mg/kg/day i.v. as 4-biphenylylacetic acid, day 24
  Inhibition (%): -29.7%
[2]; 5.0 mg/kg/day i.v. as 4-biphenylylacetic acid, day 15
  Inhibition (%): 7.3%
[2]; 5.0 mg/kg/day i.v. as 4-biphenylylacetic acid, day 16
  Inhibition (%): 12.9%
[2]; 5.0 mg/kg/day i.v. as 4-biphenylylacetic acid, day 17
  Inhibition (%): 17.9%
[2]; 5.0 mg/kg/day i.v. as 4-biphenylylacetic acid, day 18
  Inhibition (%): 15.6%
[2]; 5.0 mg/kg/day i.v. as 4-biphenylylacetic acid, day 21
  Inhibition (%): 9.2%
[2]; 5.0 mg/kg/day i.v. as 4-biphenylylacetic acid, day 24
  Inhibition (%): 2.8%
[2]; 10.0 mg/kg/day i.v. as 4-biphenylylacetic acid, day 15
  Inhibition (%): 8.2%
[2]; 10.0 mg/kg/day i.v. as 4-biphenylylacetic acid, day 16
  Inhibition (%): 9.5%
[2]; 10.0 mg/kg/day i.v. as 4-biphenylylacetic acid, day 17
  Inhibition (%): 17.9%
[2]; 10.0 mg/kg/day i.v. as 4-biphenylylacetic acid, day 18
  Inhibition (%): 16.6%
[2]; 10.0 mg/kg/day i.v. as 4-biphenylylacetic acid, day 21
  Inhibition (%): 1.3%
[2]; 10.0 mg/kg/day i.v. as 4-biphenylylacetic acid, day 24
  Inhibition (%): -0.7%
[2]; Rattus norvegicus, iv, read-out: ED20 (dose required to cause a 20% inhibition of adjuvant-injected paw volume)
  ED20: 14.3 mg/kg
[3]
  ED50: 7.1 mg/kg
[4]
  NOAEL at 72 h: ≥ 50 mg/kg
[5]; 50 mg/kg i.v.
  Findings: autopsy: No change
  Findings: general symptoms: No change
[5]; 50 mg/kg i.v. as 4-biphenylylacetic acid
  Number of the dead: 0/5
[5]; 100 mg/kg i.v.
  Findings: general symptoms (spontaneous motion): motion decreased
[5]; 100 mg/kg i.v. as 4-biphenylylacetic acid
  Number of the dead: 0/5
[5]; 200 mg/kg i.v.
  Findings: general symptoms: tarry feces
[5]; 200 mg/kg i.v. as 4-biphenylylacetic acid
  Number of the dead: 3/5
[5]; 400 mg/kg i.v. as 4-biphenylylacetic acid
  Number of the dead: 3/5
[5]; at least 100 mg/kg i.v.
  Findings: autopsy: Peptic ulcer occurred; also recorded: intestinal adherence
  Findings: general symptoms: Body weight increase inhibition
[5]; at least 200 mg/kg i.v.
  Findings: general symptoms: pallor
[5]; rat, in vivo
  Doses at which changes occurred: more than 100 mg/kg
[6]
  Tissue concentration at 30 seconds after administration: concentrations above those at which they showed a pharmacological activity
